Each molecule was assayed against T1, purified recombinant human p38 alpha MAPK (Homo sapiens, UniProt Q16539) (assay: Inhibition of p38 alpha MAPK activity, TR-FRET kinase assay). Conditions: Concentration 100 nM; read-out: P38α Inhibition.
T1 construct: purchased Millipore, USA
T1 sequence (Q16539 whole entry): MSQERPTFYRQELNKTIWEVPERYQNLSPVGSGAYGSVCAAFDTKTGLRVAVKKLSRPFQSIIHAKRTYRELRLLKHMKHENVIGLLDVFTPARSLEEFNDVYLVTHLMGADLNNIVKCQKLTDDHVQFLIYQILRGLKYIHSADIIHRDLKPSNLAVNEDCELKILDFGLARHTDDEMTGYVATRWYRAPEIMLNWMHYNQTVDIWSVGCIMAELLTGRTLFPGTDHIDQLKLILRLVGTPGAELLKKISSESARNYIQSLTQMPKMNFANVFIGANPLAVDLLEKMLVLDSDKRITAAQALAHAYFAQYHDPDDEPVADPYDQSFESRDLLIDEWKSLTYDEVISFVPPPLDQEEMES
Type: biochemical
Outline: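 Recombinant human p38α preincubated 15 min at RT with compound (0.5–1.0% DMSO), then 30 nM biotinylated GST-ATF2 and 100 μM ATP added for 60 min at RT. Stopped with EDTA; Eu-anti-phospho-ATF2 and APC-streptavidin detection, 60 min. % inhibition from 665/615 nm TR-FRET ratio.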
Molecule `CCS(=O)(=O)Nc1cc(C(C)(C)C)cc(NC(=O)Nc2ccc(OCCN3CCn4c(nnc4-c4ccccc4SC)C3)c3c2CCC3)c1OC` [Compound 45, N-[5-tert-butyl-2-methoxy-3-({[7-(2-{3-[2-(methylsulfanyl)phenyl]-5,6-dihydro[1,2,4]triazolo[4,3-a]pyrazin-7(8H)-yl}ethoxy)-2,3-dihydro-1H-inden-4-yl]carbamoyl}amino)phenyl]ethanesulfonamide] has an inhibition at 0.1 µM of 80 to 100%.

Same assay, conditions: Concentration 1 μM; read-out: P38α Inhibition
Work on `CCc1ccc(-n2nc(C(C)(C)C)cc2NC(=O)Nc2ccc(OCCN3CCn4c(nnc4-c4ccccc4OC)C3)c3c2CCC3)cc1` [Compound 23, 1-[3-tert-butyl-1-(4-ethylphenyl)-1H-pyrazol-5-yl]-3-(7-{2-[3-(2-methoxyphenyl)-5,6-dihydro[1,2,4]triazolo[4,3-a]pyrazin-7(8H)-yl]ethoxy}-2,3-dihydro-1H-inden-4-yl)urea] yielded an inhibition at 1 µM of 80 to 100%. For `CSc1ccccc1-c1nnc2n1CCN(CCOc1ccc(NC(=O)Nc3cc(C(C)(C)C)nn3-c3ccc(C)cc3)c3c1CCC3)C2` [Compound 13, 1-[3-tert-butyl-1-(4-methylphenyl)-1H-pyrazol-5-yl]-3-[7-(2-{3-[2-(methylsulfanyl)phenyl]-5,6-dihydro[1,2,4]triazolo[4,3-a]pyrazin-7(8H)-yl}ethoxy)-2,3-dihydro-1H-inden-4-yl]urea], the inhibition at 1 µM was 80 to 100%. `COc1c(NC(=O)Nc2ccc(OCCN3CCN(CC4CC4)C(=O)C3)c3c2CCC3)cc(C(C)(C)C)cc1NS(C)(=O)=O` [Compound 39, N-(5-tert-butyl-3-{[(7-{2-[4-(cyclopropylmethyl)-3-oxopiperazin-1-yl]ethoxy}-2,3-dihydro-1H-inden-4-yl)carbamoyl]amino}-2-methoxyphenyl)methanesulfonamide] was tested, and the inhibition at 1 µM was 80 to 100%. `COc1c(NC(=O)Nc2ccc(OCCN3CCn4c(nnc4-c4ccccc4O)C3)c3c2CCC3)cc(C(C)(C)C)cc1NS(C)(=O)=O` [Compound 40, N-(5-tert-butyl-3-{[(7-{2-[3-(2-hydroxyphenyl)-5,6-dihydro[1,2,4]triazolo[4,3-a]pyrazin-7(8H)-yl]ethoxy}-2,3-dihydro-1H-inden-4-yl)carbamoyl]amino}-2-methoxyphenyl)methanesulfonamide] showed an inhibition at 1 µM of 80 to 100%. In the case of `CC(C)(C)c1cc(NC(=O)Nc2ccc(OCC(=O)N3CCn4c(nnc4C(F)(F)F)C3)c3c2CCC3)n(-c2ccc(C3CCCCC3)cc2)n1` [Compound 3, 1-[3-tert-butyl-1-(4-cyclohexylphenyl)-1H-pyrazol-5-yl]-3-(7-{2-oxo-2-[3-(trifluoromethyl)-5,6-dihydro[1,2,4]triazolo[4,3-a]pyrazin-7(8H)-yl]ethoxy}-2,3-dihydro-1H-inden-4-yl)urea], the inhibition at 1 µM is reported as 20 to 40%. With `COc1c(NC(=O)Nc2ccc(OCCN3CCn4c(nnc4C4CCCCC4)C3)c3c2CCC3)cc(C(C)(C)C)cc1NS(C)(=O)=O` [Compound 72, N-{5-tert-butyl-3-[({7-[2-(3-cyclohexyl-5,6-dihydro[1,2,4]triazolo[4,3-a]pyrazin-7(8H)-yl)ethoxy]-2,3-dihydro-1H-inden-4-yl}carbamoyl)amino]-2-methoxyphenyl}methanesulfonamide] the inhibition at 1 µM was 40 to 60%. In the case of `CSc1ccccc1-c1nnc2n1CCN(C(=O)COc1ccc(NC(=O)Nc3cc(C(C)(C)C)nn3-c3ccc(O)c(Cl)c3)c3c1CCC3)C2` [Compound 9, 1-[3-tert-butyl-1-(3-chloro-4-hydroxyphenyl)-1H-pyrazol-5-yl]-3-[7-(2-{3-[2-(methylsulfanyl)phenyl]-5,6-dihydro[1,2,4]triazolo[4,3-a]pyrazin-7(8H)-yl}-2-oxoethoxy)-2,3-dihydro-1H-inden-4-yl]urea], the inhibition at 1 µM is reported as 80 to 100%. `Cc1ccc(-n2nc(C(C)(C)C)cc2NC(=O)Nc2ccc(OCCN3CCN(CCO)C(=O)C3)c3c2CCC3)cc1` [Compound 6, 1-[3-tert-butyl-1-(4-methylphenyl)-1H-pyrazol-5-yl]-3-(7-{2-[4-(2-hydroxyethyl)-3-oxopiperazin-1-yl]ethoxy}-2,3-dihydro-1H-inden-4-yl)urea] gave an inhibition at 1 µM of 80 to 100%. With `CC(C)(C)c1cc(NC(=O)Nc2ccc(OCCN3CCN(CC4CC4)C(=O)C3)c3c2CCC3)n(-c2ccccc2)n1` [Compound 61, 1-(3-tert-butyl-1-phenyl-1H-pyrazol-5-yl)-3-(7-{2-[4-(cyclopropylmethyl)-3-oxopiperazin-1-yl]ethoxy}-2,3-dihydro-1H-inden-4-yl)urea] the inhibition at 1 µM was 60 to 80%. For `Cc1ccc(-n2nc(C(C)(C)C)cc2NC(=O)Nc2cc(C)c(OCCN3CCn4c(nnc4-c4cc(Cl)ccc4O)C3)c3c2CCC3)cc1` [Compound 66, 1-[3-tert-butyl-1-(4-methylphenyl)-1H-pyrazol-5-yl]-3-(7-{2-[3-(5-chloro-2-hydroxyphenyl)-5,6-dihydro[1,2,4]triazolo[4,3-a]pyrazin-7(8H)-yl]ethoxy}-6-methyl-2,3-dihydro-1H-inden-4-yl)urea], the inhibition at 1 µM was < 20%. Work on `CC(C)(C)c1cc(NC(=O)Nc2ccc(OCCN3CCn4c(nnc4C4CCCCC4)C3)c3c2CCC3)n(-c2ccc(O)c(Cl)c2)n1` [Compound 65, 1-[3-tert-butyl-1-(3-chloro-4-hydroxyphenyl)-1H-pyrazol-5-yl]-3-{7-[2-(3-cyclohexyl-5,6-dihydro[1,2,4]triazolo[4,3-a]pyrazin-7(8H)-yl)ethoxy]-2,3-dihydro-1H-inden-4-yl}urea] yielded an inhibition at 1 µM of 20 to 40%. Molecule `COc1ccc(-n2nc(C(C)(C)C)cc2NC(=O)Nc2ccc(OCC(=O)N3CCn4c(nnc4C(F)(F)F)C3)c3c2CCC3)cc1Cl` [Compound 53, 1-[3-tert-butyl-1-(3-chloro-4-methoxyphenyl)-1H-pyrazol-5-yl]-3-(7-{2-oxo-2-[3-(trifluoromethyl)-5,6-dihydro[1,2,4]triazolo[4,3-a]pyrazin-7(8H)-yl]ethoxy}-2,3-dihydro-1H-inden-4-yl)urea] has an inhibition at 1 µM of 40 to 60%. In the case of `COc1ccccc1-c1nnc2n1CCN(CCOc1ccc(NC(=O)Nc3cc(C(C)(C)C)nn3-c3ccc(C)cc3)c3c1CCC3)C2` [Compound 14, 1-[3-tert-butyl-1-(4-methylphenyl)-1H-pyrazol-5-yl]-3-(7-{2-[3-(2-methoxyphenyl)-5,6-dihydro[1,2,4]triazolo[4,3-a]pyrazin-7(8H)-yl]ethoxy}-2,3-dihydro-1H-inden-4-yl)urea], the inhibition at 1 µM is reported as 80 to 100%. `Cc1ccc(-n2nc(C(C)(C)C)cc2NC(=O)Nc2ccc(OCC(=O)N3CCn4c(nnc4C(F)(F)F)C3)c3c2CCC3)cc1` [Compound 1, 1-[3-tert-butyl-1-(4-methylphenyl)-1H-pyrazol-5-yl]-3-(7-{2-oxo-2-[3-(trifluoromethyl)-5,6-dihydro[1,2,4]triazolo[4,3-a]pyrazin-7(8H)-yl]ethoxy}-2,3-dihydro-1H-inden-4-yl)urea] showed an inhibition at 1 µM of 80 to 100%. `COc1c(NC(=O)Nc2ccc(OCCN3CCn4c(nnc4-c4cccc5ccccc45)C3)c3c2CCC3)cc(C(C)(C)C)cc1NS(C)(=O)=O` [Compound 74, N-(5-tert-butyl-2-methoxy-3-{[(7-{2-[3-(naphthalen-1-yl)-5,6-dihydro[1,2,4]triazolo[4,3-a]pyrazin-7(8H)-yl]ethoxy}-2,3-dihydro-1H-inden-4-yl)carbamoyl]amino}phenyl)methanesulfonamide] gave an inhibition at 1 µM of 60 to 80%. With `CC(=O)Nc1cc2c(s1)CCN(C(=O)COc1ccc(NC(=O)Nc3cc(C(C)(C)C)nn3-c3ccc(C4CCCCC4)cc3)c3c1CCC3)C2` [Compound 55, N-[5-({[7-({[3-tert-butyl-1-(4-cyclohexylphenyl)-1H-pyrazol-5-yl]carbamoyl}amino)-2,3-dihydro-1H-inden-4-yl]oxy}acetyl)-4,5,6,7-tetrahydrothieno[3,2-c]pyridin-2-yl]acetamide] the inhibition at 1 µM was < 20%.

Reference: US9963463B2, “Urea-substituted indanes as P38 map kinase inhibitors” (TORRENT PHARMACEUTICALS LIMITED, priority 2014, dated 2018)
